Data reported in patent publication US20130202646A1, “COMPOSITIONS AND METHODS FOR MODULATING AUTOPHAGY” (SAN DIEGO STATE UNIVERSITY (SDSU) FOUNDATION, priority 2010, published 2013).

What was measured:
[1] = tested on: HL-1 cells; experiment: Autophagy scored by intracellular distribution of GFP-LC3 (fluorescence microscopy) in HL-1 cells; type: cell-based, murine; conditions: for effect on upregulation/induction of autophagy by CCPA: inhibitor pretreatment, then CCPA, normoxic, before ischemia
[2] = tested on: HL-1 cells; experiment: Cell death by LDH release after simulated ischemia/reperfusion (sI/R) in HL-1 cells; type: cell-based, murine; conditions: for effect on cytoprotection by CCPA (LDH release): inhibitor plus CCPA, then sI/R (2 hr sI, 3 hr R)
Protocol: Cells of the murine atrial-derived cardiac cell line HL-1^16 were plated in gelatin/fibronectin-coated culture vessels and maintained in Claycomb medium^16 (JRH Biosciences, Lenexa, Kans.) supplemented with 10% fetal bovine serum, 0.1 mm norepinephrine, 2 mm […], 100 U·mL^-1 penicillin, 100 U·mL^-1 streptomycin, and 0.25 μg·mL^-1 amphotericin B. Cells were plated in 14-mm diameter glass bottom microwell dishes (MatTek), and ischemia was introduced by a buffer exchange to ischemia-mimetic solution (in mM: 20deoxyglucose, 125 NaCl, 8 KCl, 1.2 KH2PO4, 1.25 MgSO4, 1.2 CaCl2, 6.25 NaHCO2, 5 sodium lactate, 20 HEPES, pH 6.6) and placing the dishes in hypoxic pouches (GasPakTM EZ, BD Biosciences) equilibrated with 95% N2, 5% CO2. After 2 hr of simulated ischemia, reperfusion was initiated by a buffer exchange to normoxic MKH buffer and incubation at 95% room air, 5% CO2. Controls incubated in normoxic MKH buffer were run in parallel for each condition for periods of time that corresponded with those of the experimental groups. […] The cell cultures were washed with PBS prior to the experimental treatment. Protein content and LDH activity were determined according to El-Ani et al.^20. Briefly, 25 μl supernatants from 35 mm dishes were transferred into wells of a 96-well plate, and the LDH activities were determined with an LDH-L kit (Sigma), according to the manufacturer. The product of the enzyme was measured spectrophotometrically at 30° C. at a wavelength of 340 nm as described previously^21. The results were expressed relative to the control (X-fold) in the same experiment. Each experiment was done in triplicate and was repeated at least three times.

[3] = tested on: HL-1 cells; experiment: Cell death by propidium iodide uptake after sI/R in HL-1 cells; type: cell-based, murine; conditions: 100 nM CCPA 10 min before sI/R; end of reperfusion
Protocol: Cells were plated in 14-mm diameter glass bottom microwell dishes (MatTek), and ischemia was introduced by a buffer exchange to ischemia-mimetic solution (in mM: 20deoxyglucose, 125 NaCl, 8 KCl, 1.2 KH2PO4, 1.25 MgSO4, 1.2 CaCl2, 6.25 NaHCO2, 5 sodium lactate, 20 HEPES, pH 6.6) and placing the dishes in hypoxic pouches (GasPakTM EZ, BD Biosciences) equilibrated with 95% N2, 5% CO2. After 2 hr of simulated ischemia, reperfusion was initiated by a buffer exchange to normoxic MKH buffer and incubation at 95% room air, 5% CO2. Controls incubated in normoxic MKH buffer were run in parallel for each condition for periods of time that corresponded with those of the experimental groups. Cells were stained immediately after sI/R with propidium iodide (5 μg/ml), which stains nuclei of cells whose plasma membranes have become permeable because of cell damage. The assay was performed according to […] et al.^22. For counterstaining we used Hoechst 33342 (10 μM), which stains the nuclei of all cells.

[4] = tested on: adult rat cardiomyocytes; experiment: Autophagy (GFP-LC3 puncta) in adult rat cardiomyocytes; type: cell-based
[5] = tested on: mCherry-LC3 transgenic mice; experiment: Induction of autophagy in vivo in hearts of mCherry-LC3 transgenic mice
[6] = tested on: adult rat cardiomyocytes; conditions: CCPA 10 min before simulated ischemia (FIG. 7B)
[7] = tested on: neonatal rat cardiomyocytes; experiment: Autophagosomes (GFP-LC3) in neonatal rat cardiomyocytes; conditions: 100 nM CCPA, 10 min
Protocol: To analyze the number of GFP-LC3 puncta in population, cells were inspected at 60× magnification and classified as: (a) cells with predominantly diffuse GFP-LC3 fluorescence; or as (b) cells with numerous GFP-LC3 puncta (>30 dots/cell), representing autophagosomes. At least 200 cells were scored for each condition in three or more independent experiments.
(A) GFP-LC3 transfected HL-1 cells were treated for 120 min in full medium (FM) with various concentrations (0.001-10 μM) of CCPA. (B) GFP-LC3-transfected HL-1 cells were treated with 100 nM CCPA for the indicated time, then fixed with paraformaldehyde and scored by fluorescence microscopy. […] (D) Representative images of neonatal cardiomyocytes under control conditions or 10 min after administration of 100 nM CCPA. (E) Representative images of adult cardiomyocytes under control conditions or 10 min after administration of 100 nM CCPA. (F) Transgenic mice expressing mCherry-LC3 under the αMHC promoter received an i.p. injection of saline or 1 mg/kg CCPA, then were sacrificed 30 min later and heart tissue was processed for fluorescence microscopy.

[8] = tested on: isolated perfused rat hearts; experiment: Langendorff global ischemia/reperfusion injury in isolated perfused rat hearts (CK release, TTC infarct size, hemodynamics)
[9] = tested on: isolated perfused rat hearts; experiment: Autophagy in isolated perfused rat hearts (LC3-II/LC3-I Western blot, cadaverine dye binding)
[10] = tested on: PKC δ; experiment: PKC delta translocation/redistribution in perfused rat heart and adult rat cardiomyocytes; type: cell-based
[11] = tested on: PKC epsilon; experiment: PKC epsilon translocation in perfused rat heart; type: cell-based; conditions: after SUL administration
Protocol: Subcellular fractionation. Frozen heart samples were thawed on ice in homogenization buffer containing (in mmol/L): Tris-HCL 20, EDTA 2, EGTA 10, PMSF 1, leupeptin 0.1, E-64 0.01, and sucrose 250). The tissue was then minced and Plytron homogenized (Kinematica, Basel, Switzerland) on ice for 15s for three passes. The homogenates were centrifuged at 600 g for 5 min at 4° C, and the crude supernatants were further centrifuged at 10,000 g for 10 min 4° C. The supernatant, designated as crude cytosol, was divided and one fraction was further centrifuged at 100,000 g for 1 h at 4° C. The resulting supernatant was designated as cytosolic fraction. The pellet was resuspended in homogenization buffer with 1% TritonX-100, incubated on ice for 1 h, then centrifuged at 100,000 g for 1 h at 4° C. The resulting supernatant was designated as the particulate fraction. Samples were stored at −80° C. until use. Western blot analysis. Proteins prepared from rat hearts were quantified by Bio-Rad protein assay. For immunodetection, 50 μg of crude cytosol prepared as above were resolved on SDS-PAGE 10% denaturing gels and transferred to PVDF nylon membranes. The membranes were blocked with 5% nonfat dry milk in TNT buffer (in mM: NaCl 100, Tris·HCl 10 (pH 7.4), and 0.1% Tween-20) for 1 h. […] To quantify the protein, intensity of bands was assessed with Scion Image Software.

## CC(=O)OCOC(=O)CN(CC(=O)OCOC(C)=O)c1ccccc1OCCOc1ccccc1N(CC(=O)OCOC(C)=O)CC(=O)OCOC(C)=O [BAPTA-AM]
[1]
  effect on upregulation/induction of autophagy by CCPA: suprressed the induction of autophagy by CCPA

## OC[C@H]1O[C@@H](n2cnc3c(NC4CCCC4)nc(Cl)nc32)[C@H](O)[C@@H]1O [CCPA, 2-chloro-N(6)-cyclopentyladenosine]
[1]; 100 nM 10 min, full medium, with or without Bafilomycin A1 (FIG. 2)
  percentage of cells with numerous autophagosomes (autophagic flux): increased the percentage of cells with numerous autophagosomes under both steady-state and cumulative conditions
[1]; 100 nM 10 min, then 2 hr sI, 3 hr R
  autophagosomes after sI/R: Fewer autophagosomes
[1]; 100 nM 10 min, then starvation in MKH 3 hr
  extent of autophagy induced by starvation: no effect
[1]; 24 hr after 10 min CCPA and washout, normoxia
  autophagy in delayed preconditioning: upregulated
[1]; 24 hr after 10 min CCPA, then sI/R
  repair autophagy at reperfusion in delayed preconditioning: less
[1]; CCPA 100 nM
  persistence of the increase in autophagosomes: at least 300 min
  time to increase in the number of autophagosomes: ≤ 10 min
[1]; full medium, 0.001-10 μM, 120 min (FIG. 1A)
  induction of autophagy: induced autophagy in a dose-dependent fashion
[2]; 100 nM CCPA 10 min before sI/R, end of simulated ischemia
  LDH release: diminished LDH release
[3]
  uptake of propidium iodide: diminished
[4]; CCPA 10 min (FIG. 7A)
  autophagy (percentage of cells with numerous puncta): induced autophagy
[5]; CCPA 1 mg/kg i.p., 30 min
  number of mCherry-LC3-labeled structures in left ventricle cryosections: a large increase in the number of mCherry-LC3-labeled structures
[6]
  cytoprotection (LDH release at end of simulated ischemia): conferred cytoprotection
[7]
  number of autophagosomes: an increase in the number of autophagosomes

## CCCn1c(=O)c2[nH]c(C3CCCC3)nc2n(CCC)c1=O [DPCPX]
[1]
  effect on upregulation/induction of autophagy by CCPA: partially blocked
[1]; with CCPA 10 min, washout, 20-24 hr later
  effect on autophagy in the second window of protection: blocked the effects of CCPA on autophagy
[2]
  effect on cytoprotection by CCPA (LDH release): Cytoprotection was abolished
[2]; with CCPA 10 min, washout, sI/R 20-24 hr later
  effect on cytoprotection by CCPA in the second window of protection (LDH release): abolished the cytoprotection by CCPA

## Nc1ccc(S(=O)(=O)Nc2ccnn2-c2ccccc2)cc1 [SUL, sulfaphenazole]
[4]; 10 μM SUL, 30 min
  percentage of cells with numerous autophagosomes: significantly increased
[5]; SUL 10 mg/kg i.p.
  number of autophagosomes in hearts: significant increase in the number of autophagosomes
[8]; 10 μM SUL
  contractility before ischemia: no effect
[8]; 10 μM SUL from 10 min before ischemia, 30 min ischemia, 120 min reperfusion
  infarct size (TTC): reduced infarct size
[8]; 10 μM SUL, pre-ischemic administration
  recovery of contractile function after I/R: about 90 % of pre-ischemic value
[8]; 10 μM SUL, coronary effluent, first 15 min of reperfusion
  CK release: attenuated CK release
[8]; SUL alone, 120 min reperfusion
  infarct size: 5 % of the area at risk
[8]; SUL introduced at the onset of reperfusion
  infarct size (TTC): the reduction of infarct size was sustained
[8]; SUL introduced at the onset of reperfusion, listed as sulfaphenazole
  infarct size (TTC): reduces infarct size
[9]; SUL administration (FIG. 15B)
  BODIPY-TR-cadaverine incorporation into autophagosomes: increased
[9]; SUL perfusion 30 min
  ratio of LC3-II/I: doubling
[10]; Langendorff-perfused heart, 30 min after SUL infusion
  PKC delta translocation (cytosol to particulate fraction): translocation of PKC delta to the particulate fraction
[10]; adult rat cardiomyocytes, SUL 15 min
  distribution of PKC delta (immunostaining): much more closely aligned with alpha-actinin
[11]
  PKC epsilon translocation: did not show a consistent pattern of translocation

## COc1ccc2c(c1)CC[C@@H]1[C@@H]2CC[C@]2(C)[C@@H](NCCCCCCN3C(=O)C=CC3=O)CC[C@@H]12 [U73122]
[1]; inhibitor 15 min, then CCPA 10 min, then sI/R
  autophagy after sI/R (repair autophagy): an increase in autophagy after sI/R
[1]
  effect on upregulation/induction of autophagy by CCPA: PLC is required for CCPA stimulation of autophagy before ischemia
[2]
  effect on cytoprotection by CCPA (LDH release): an increase in LDH release

## COc1ccc2c(c[n+](C)c3c4cc5c(cc4ccc23)OCO5)c1OC [chelerythrine]
[4]; chelerythrine 5 μM 10 min before 10 μM SUL
  effect on SUL-induced increase in cells with numerous autophagosomes: suppressed
[8]; chelerythrine 15 min before ischemia
  infarct size with or without SUL: no difference in infarct size whether SUL is present or absent
[9]; chelerythrine with SUL
  effect on autophagy induced by SUL (cadaverine dye binding): suppressed autophagy induced by SUL

## C/C=C(/C)C(=O)O[C@H]1C(C)=C2[C@H]([C@@H]1OC(=O)CCCCCCC)[C@@](C)(OC(C)=O)C[C@H](OC(=O)CCC)[C@@]1(O)[C@H]2OC(=O)[C@@]1(C)O [thapsigargin]
[1]
  effect on upregulation/induction of autophagy by CCPA: suprressed the induction of autophagy by CCPA
